From publication PMC6934184, “Selective DNA-PKcs inhibition extends the therapeutic index of localized radiotherapy and chemotherapy” (The Journal of Clinical Investigation, 2019)

Molecular target: T1, AMPK (A1/B1/G2) (Homo sapiens, UniProt Q13131)
T1 construct: purchased Thermo Fisher Scientific (Life Technologies) SelectScreen
Experiment: SelectScreen LanthaScreen
Assay type: binding
Conditions: read-out: % displacement
Outline: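 SelectScreen broad panel; activity (Z'LYTE, Adapta) plus binding formats. ATP: Km app for CSF1R Z'LYTE; 10 for CAMK1 Adapta. Readout = % per kinase.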

T1 sequence (Q13131 whole entry): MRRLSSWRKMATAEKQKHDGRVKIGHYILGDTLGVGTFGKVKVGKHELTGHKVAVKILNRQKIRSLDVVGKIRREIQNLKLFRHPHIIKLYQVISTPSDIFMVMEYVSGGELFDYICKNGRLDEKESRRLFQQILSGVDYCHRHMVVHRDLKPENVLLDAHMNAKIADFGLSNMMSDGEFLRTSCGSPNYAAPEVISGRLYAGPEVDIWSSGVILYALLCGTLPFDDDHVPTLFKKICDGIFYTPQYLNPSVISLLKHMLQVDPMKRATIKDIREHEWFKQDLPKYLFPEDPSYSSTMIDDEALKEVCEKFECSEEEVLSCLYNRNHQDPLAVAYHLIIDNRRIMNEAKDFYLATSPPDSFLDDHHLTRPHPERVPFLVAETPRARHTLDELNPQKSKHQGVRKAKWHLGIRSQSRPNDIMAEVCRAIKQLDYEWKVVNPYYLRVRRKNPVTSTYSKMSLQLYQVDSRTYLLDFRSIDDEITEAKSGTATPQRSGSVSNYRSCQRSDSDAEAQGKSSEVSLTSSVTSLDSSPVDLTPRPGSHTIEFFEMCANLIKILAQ
T1 sequence (Q9Y478 whole entry partner): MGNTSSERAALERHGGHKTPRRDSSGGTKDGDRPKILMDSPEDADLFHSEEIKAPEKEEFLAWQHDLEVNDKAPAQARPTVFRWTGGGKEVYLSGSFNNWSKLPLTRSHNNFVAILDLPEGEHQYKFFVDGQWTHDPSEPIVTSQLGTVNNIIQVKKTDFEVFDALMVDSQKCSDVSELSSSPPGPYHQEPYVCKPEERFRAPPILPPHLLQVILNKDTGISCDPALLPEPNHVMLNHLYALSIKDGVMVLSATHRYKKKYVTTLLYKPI
T1 sequence (Q9UGJ0 whole entry partner): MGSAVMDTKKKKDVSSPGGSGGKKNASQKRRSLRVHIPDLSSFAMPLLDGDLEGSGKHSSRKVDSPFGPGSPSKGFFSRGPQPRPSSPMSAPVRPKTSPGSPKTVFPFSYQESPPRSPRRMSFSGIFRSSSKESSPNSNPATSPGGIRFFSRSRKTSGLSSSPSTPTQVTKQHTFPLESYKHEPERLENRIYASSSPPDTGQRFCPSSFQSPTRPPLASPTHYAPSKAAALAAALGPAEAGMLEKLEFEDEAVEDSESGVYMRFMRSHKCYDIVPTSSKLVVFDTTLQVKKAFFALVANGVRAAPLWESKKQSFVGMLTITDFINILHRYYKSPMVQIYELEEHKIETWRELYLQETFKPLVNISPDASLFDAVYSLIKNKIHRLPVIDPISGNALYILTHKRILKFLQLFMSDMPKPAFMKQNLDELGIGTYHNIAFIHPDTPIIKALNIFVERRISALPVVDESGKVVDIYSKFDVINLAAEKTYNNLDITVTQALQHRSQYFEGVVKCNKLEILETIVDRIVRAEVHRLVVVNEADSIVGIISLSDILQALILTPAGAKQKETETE

## CN(C(=O)CN1CCOCC1)c1ccc2sc3c(-c4cccc5c(=O)cc(N6CC7CCC(C6)O7)oc45)cccc3c2c1 [NU5455]
  inhibition at 1 µM: 2.4%
